# Experimental data from PMC11124525, “Pharmacokinetic–Pharmacodynamic Correlation Analysis of Rhodiola crenulata in Rats with Myocardial Ischemia” (Pharmaceuticals, 2024).
# Entries after “also recorded” stand apart in the source; their conditions may differ. Where two headings read alike, the source gives them in different places.
# What was measured:
# [1] = cited from earlier work
# AST = assay: PK-PD sigmoid-Emax model, PD index AST in MDG rats; assay type: in vivo, SD rats; design: unit not given beside the values
# SOD = assay: PK-PD sigmoid-Emax model, PD index SOD in MDG rats; assay type: in vivo, SD rats; design: Ke0: unit not given beside the values
# CK = assay: PK-PD sigmoid-Emax model, PD index CK in MDG rats; assay type: in vivo, SD rats; design: Emax: unit not given beside the values
# [2] = PK of five RC components in pituitrin-induced myocardial ischemia (MDG) rats after oral RC extract, HPLC-QQQ-MS/MS, DAS; assay type: in vivo, SD rats; conditions: for AUC(0-t) / AUC(0-inf) / CL/F / Cmax / MRT / MRT inf / Tmax / Vd/F / half-life: rat, plasma; for AUC(0-t): read-out: AUC(0−t); for AUC(0-inf): read-out: AUC(0−∞); for CL/F: read-out: CLz/F (converted); for Cmax: read-out: Cmax; for MRT: read-out: MRT(0−); for MRT inf: read-out: MRT(0−∞); for Vd/F: read-out: Vz/F; for half-life: read-out: t1/2z (converted)
# Procedure: (§1) The drug concentration in plasma was calculated using the standard curve, and the mean blood concentration was plotted against the time to obtain the mean blood concentration–time curve (Figure 4).
# (§2) The rat model of MI was made with Pit. The rats were divided into a sham operation group (SG), sham operation administration group (SDG), model group (MG), and model administration group (MDG) (n = 6 for each group). The MI model was prepared via an intraperitoneal injection (a single time) of Pit in the MG and MDG, with a dosage of 20 U/kg and a volume of 10 mL/kg. At the same time, the rats in the SG and SDG groups were given the same volume of saline in the same way.
# (§3) RC extract (2 g/kg, equivalent to human clinical equivalent dose) was given to rats via oral administration in SDG and MDG, and the same volume of normal saline was orally administered to the SG and MG. Rats were fasted for 12 h before the experiment. Blood was collected from the fundus venous plexus at 0, 5, 10, 15, 30, 45 min, 1, 2, 4, 6, 8, 12, and 24 h after in gavage, placed in a centrifuge tube impregnated with heparin sodium, centrifuged at 3500 rpm for 15 min, and then the plasma was collected and divided into two parts. One part was used for biochemical index determination and the other part was used to determine the content of pharmaceutical ingredients in vivo. After the experiment, the rats were sacrificed, and the hearts were placed in paraformaldehyde for histopathological analysis.
# (§4) The plasma sample of 100 μL was accurately absorbed, 50 μL internal standard solution (Nimodipine, 500 ng/mL) was added, then 300 μL acetonitrile precipitated protein was added, vortex for 10 min, placed under ultrasound for 3 min, centrifuged at 13,000 rpm for 10 min, and then the supernatant was transferred to another centrifuge tube. It was then concentrated until dry with a rotary evaporator. The residue was redissolved with 100 μL 50% acetonitrile, swirled for 1 min, placed under ultrasonic for 3 min, centrifuged at 13,000 rpm for 10 min, and the supernatant was taken for analysis.
# (§5) A validated HPLC-QQQ-MS/MS method was used for the determination of drug-derived components in plasma samples at different time points. The accompanying standard curve was substituted to calculate the content of the compounds to be measured, and then the PK parameters were calculated using DAS software (version 3.2.8), and the blood concentration–time curve was plotted using GraphPad Prism (version 8.0.2). PK behavior was compared between the sham operation and model group, and PK models were established, respectively.
# HBDH = assay: PK-PD sigmoid-Emax model, PD index HBDH in MDG rats; assay type: in vivo, SD rats; design: unit not given beside the values
# [3] = rat
# Procedure: A series concentration mixed reference solution with different concentrations was added to 100 μL plasma, and was treated according to the method under Section 4.6 to obtain the matrix standard curve sample. Samples with concentrations of 400, 100, and 10 ng/mL, respectively, were taken as quality control (QC) samples of high, medium, and low concentrations (HQC, MQC, LQC). The method was validated, including linearity, inter-day/intra-day precision, repeatability, stability, extraction recovery, and matrix effect, according to FDA bioanalytical method validation guidelines.
# LDH = assay: PK-PD sigmoid-Emax model, PD index LDH in MDG rats
# Source text: Subsequently, we incorporated the PK and PD data to conduct PK-PD modeling through DAS.
# Therefore, PK-PD correlation analysis was used in this study, linking dynamic concentration–time processes and effect–time profile relationships [20, 21, 22]. […] The model adopted in this study is the S-Emax model. In the equation, γ means the shape factor in the formula, affecting the slope and determining the steepness of the curve. Emax can provide the maximum response intensity, and ED50 is for evaluating the safety of the drug, which is understood as the amount of the drug that causes 50% of the maximum response intensity.
# Plasma creatine kinase (CK), hydroxybutyrate dehydrogenase (HBDH), lactate dehydrogenase (LDH), and superoxide dismutase (SOD) activity was determined using an automatic biochemical analyzer.
# The activity of the CK, HBDH, LDH, and SOD of plasma samples collected at different time points was determined using an automatic biochemical analyzer for PD index evaluation. […] Two compartmental methods were used, employing the drug and statistics, which was supplied by the Chinese Pharmacological Society. Then, the efficacy indicators were fitted in the PK-PD model.
# [4] = PK of five RC components in sham operation administration (SDG, normal) rats after oral RC extract, HPLC-QQQ-MS/MS, DAS; assay type: in vivo, SD rats; conditions: rat, SDG rats, oral RC extract 2 g/kg, plasma, mean ± SD, n = 6; for AUC(0-t): read-out: AUC(0−t); for AUC(0-inf): read-out: AUC(0−∞); for CL/F: read-out: CLz/F (converted); for Cmax: read-out: Cmax; for MRT: read-out: MRT(0−); for Tmax: read-out: Tmax; for Vd/F: read-out: Vz/F; for half-life: read-out: t1/2z (converted)
# Procedure: as §1, §2, §3, §4, §5
# [5] = MDG vs SDG rats, oral RC extract 2 g/kg
# [6] = in vivo, MDG (myocardial ischemia) rats, oral RC extract 2 g/kg, mean ± SD, n = 6
# [7] = MDG (myocardial ischemia) rats, oral RC extract 2 g/kg, mean ± SD, n = 6
compound,measurement,setting,value
"O=c1c(O)c(-c2ccc(O)cc2)oc2cc(O)cc(O)c12 [Kaempferol, kaempferol]","AUC, MRT, t1/2, and Cmax in modeled rats",[1]; modeled rats (disease state),increased
same,Clearance in modeled rats,[1]; modeled rats (disease state),decreased
same,Emax,AST,1422.742
same,Ke0,AST,2.998
same,Emax,SOD,68.398
same,Ke0,SOD,0.115
same,Emax,CK,2736.472
same,Ke0,CK,2.998
same,Change of CLZ/F in MDG compared with SDG,[2]; [5],marked decreasing tendency; also recorded: decreased significantly
same,Change of Cmax in MDG compared with SDG,[2]; [5],increased significantly; also recorded: significantly increased
same,AUC(0-t),[2]; [6],354 ± 50.4 ng·h/mL
same,AUC(0-inf),[2]; [6],645 ± 179 ng·h/mL
same,CL/F,[2]; [6],140 mL/min/kg
same,Cmax,[2]; [6],38.4 ± 4.92 ng/mL
same,MRT,[2]; [6],9.05 ± 0.7 h
same,MRT inf,[2]; [6],30.9 ± 14.1 h
same,Tmax,"[2]; in vivo, MDG (myocardial ischemia) rats, oral RC extract 2 g/kg, mean ± SD, n = 6, read-out: Tmax",45 min
same,Vd/F,[2]; [6],245 ± 67 L/kg
same,half-life,[2]; [6],1360 ± 639 min
same,Emax,HBDH,6565.084
same,Ke0,HBDH,0.928
same,Stability RE (%),[3]; 10 ng/mL,102.9%
same,Stability RE (%),[3]; 400 ng/mL,94.57%
same,Stability RE (%),"[3]; 48 h, 10 ng/mL",101.5%
same,Stability RE (%),"[3]; 48 h, 50 ng/mL",90.22%
same,Stability RE (%),"[3]; 48 h, 400 ng/mL",92.55%
same,Stability RE (%),"[3]; 10 days, 50 ng/mL",99.12%
same,Stability RE (%),"[3]; 10 days, 400 ng/mL",100.4%
same,Emax,LDH,599.812
same,AUC(0-t),[4]; in vivo,306 ± 30.5 ng·h/mL
same,AUC(0-inf),[4]; in vivo,427 ± 95.4 ng·h/mL
same,CL/F,[4]; in vivo,203 mL/min/kg
same,Cmax,[4]; in vivo,31.2 ± 1.53 ng/mL
same,MRT,[4]; in vivo,8.54 ± 0.55 h
same,MRT inf,"[4]; in vivo, read-out: MRT(0−∞)",19.4 ± 9.37 h
same,Tmax,[4]; in vivo,1.67 ± 1.21 h
same,Vd/F,[4]; in vivo,224 ± 107 L/kg
same,half-life,[4]; in vivo,847 ± 505 min
"OC[C@H]1O[C@@H](OCCc2ccc(O)cc2)[C@H](O)[C@@H](O)[C@@H]1O [Salidroside, salidroside]",Systemic exposure in hypoxia,[1]; hypoxia,increased significantly
same,Bioavailability under pathological conditions,[1]; pathological conditions,increased significantly
same,Emax,AST,1091.001
same,Ke0,AST,2.821
same,Emax,SOD,71.79
same,Ke0,SOD,0.025
same,Emax,CK,2288.494
same,Ke0,CK,2.698
same,Change of Cmax in MDG compared with SDG,[2]; [5],increased significantly; also recorded: significantly increased
same,Tmax,"[2]; SD, po, 2 g/kg, MDG (myocardial ischemia) rats, oral RC extract 2 g/kg, mean ± SD, n = 6, read-out: Tmax",49.8 ± 7.8 min
same,Tmax,"[2]; SD, po, 2 g/kg, according to the PK results, group not given, oral RC extract, read-out: Tmax (approximate)",~60 min
same,AUC(0-t),[2]; [7],7790 ± 1160 ng·h/mL
same,AUC(0-inf),[2]; [7],10000 ng·h/mL
same,CL/F,[2]; [7],8.67 mL/min/kg
same,Cmax,[2]; [7],1350 ± 133 ng/mL
same,MRT,[2]; [7],6.7 ± 0.61 h
same,MRT inf,[2]; [7],16.7 ± 9.83 h
same,Vd/F,[2]; [7],10.7 ± 7.46 L/kg
same,half-life,[2]; [7],926 ± 673 min
same,Emax,HBDH,4898.547
same,Ke0,HBDH,0.46
same,Stability RE (%),[3]; 10 ng/mL,90.22%
same,Stability RE (%),[3]; 400 ng/mL,99.82%
same,Stability RE (%),"[3]; 48 h, 10 ng/mL",89.72%
same,Stability RE (%),"[3]; 48 h, 50 ng/mL",90.35%
same,Stability RE (%),"[3]; 48 h, 400 ng/mL",98.56%
same,Stability RE (%),"[3]; 10 days, 10 ng/mL",88.35%
same,Stability RE (%),"[3]; 10 days, 50 ng/mL",100.1%
same,Stability RE (%),"[3]; 10 days, 400 ng/mL",97.63%
same,Emax,LDH,482.587
same,Ke0,LDH,2.476
same,AUC(0-t),[4],5710 ± 321 ng·h/mL
same,AUC(0-inf),[4],8350 ± 2310 ng·h/mL
same,CL/F,[4],10.7 mL/min/kg
same,Cmax,[4],1010 ± 84.2 ng/mL
same,MRT,[4],7.14 ± 0.51 h
same,Tmax,[4],0.75 ± 0.16 h
same,Vd/F,[4],15.2 ± 8.77 L/kg
same,half-life,[4],1190 ± 962 min
rhodiosin,Emax,AST,1084.02
same,Ke0,AST,2.998
same,Emax,SOD,72.933
same,Ke0,SOD,0.055
same,Emax,CK,2289.293
same,Ke0,CK,2.998
same,Emax,HBDH,4335.008
same,Ke0,HBDH,0.469
same,Emax,LDH,484.31
same,Ke0,LDH,2.998
